Assay: gradient 5% acetonitrile 3 min, to 50% in 2 min, to 85% in 15 min, held 3 min, 100 µL/min
Settings: column: Zorbax Extend-C18 2.1 x 50 mm; eluents: water / acetonitrile, 0.1% formic acid
How it was run: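 Using water and acetonitrile that each contained 0.1% formic acid, mixtures of ~100 pure standards were separated at 100 μL/min on a Zorbax Extend-C18 column (2.1 × 50 mm, 1.8 μm). The HPLC fed a quadrupole time-of-flight mass spectrometer working in positive and negative ionization mode, with dead and dwell volumes of 40 μL and 900 μL. Data were acquired over 3 months. Retention time was read from computationally picked adduct peaks after manual inspection of each.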

RP-LC retention time [s] | Compound
637 | O=C(Cn1nc2nc(Nc3ccc(F)cc3)ccn2c1=O)NCC1CCCO1 (stereo not drawn)
788 | CN1c2ccc(Cl)cc2C(=O)NC12CCN(C(=O)Nc1ccc(F)cc1)CC2
703 | CCOC(=O)CC1(NC(=O)N2CCN(c3nc4ccccc4n3CC)CC2)CCCCC1
904 | CCn1cc(-c2nc(CC(=O)NCc3ccc(Cl)cc3)cs2)c2cccnc21
947 | CCc1cccc(C)c1Nc1c(-c2ccccc2)nc2cnccn12
699 | O=C(CN1CCc2[nH]c3c(F)c(Cl)ccc3c(=O)c2C1)Nc1cc(F)cc(F)c1
796 | COC1CN(C2CCN(C(=O)c3sc(C)nc3C)CC2)C12CCOCC2 (stereo not drawn)
762 | O=C(NCC1CCCO1)c1cn(-c2cc(-c3nc(C4CC4)no3)ccn2)cn1 (stereo not drawn)
714 | O=C(NCC(c1cccnc1)c1c[nH]c2ccccc12)Nc1cccc(Br)c1 (stereo not drawn)
560 | Cn1c(=O)c(N2CCN(C(=O)c3cc(Cl)ccc3F)CC2)nc2ccncc21
730 | CCOc1cc(C(=O)N2CCN(c3cc(=O)n(C)c(=O)n3C)CC2)cc(OCC)c1OCC
1130 | CCn1c(=O)n(CC(=O)N(C)C2CCCCC2)c(=O)c2cnc(-c3ccccc3)nc21
761 | CCc1ccc(CNC(=O)C2CCN(Cc3cn(CC)c4ccc(OC)cc34)CC2)cc1
1100 | COc1cccc(CNC(=O)C2CCCN(c3nccnc3Sc3ccccc3)C2)c1 (stereo not drawn)
761 | Cc1ccc(CNC(=O)N2CCC3(CC2)NC(=O)c2ccc(F)cc2N3C)cc1
761 | CCN1CCCn2nc(C3CCN(S(=O)(=O)c4ccc(F)cc4)CC3)cc2C1=O
605 | Cc1noc2nc(CCC(=O)NCCCN3CCc4ccccc4C3)nc(N3CCOCC3)c12
623 | CCCN1CCN(C(=O)C2CCN(S(=O)(=O)c3ccc4c(c3)sc(=O)n4CC)CC2)CC1
630 | CCNC(=O)C1N(C(C)C)C(=O)C12CCCCC2 (stereo not drawn)
765 | FC1(F)C[C@@H](CN2CCOCC2)N(Cc2cn[nH]c2-c2ccccc2)C1
921 | COc1nccnc1NC1CCN(C(=O)Cc2ccsc2)CC1
883 | COc1cccc(OC)c1C(=O)Nc1ccc2c(c1)Sc1ncccc1C(=O)N2C(C)C

RP-LC retention time [s] | Compound
1050 | O=C1CC(c2noc(-c3ccccc3F)n2)CN1c1ccc(F)c(Cl)c1 (stereo not drawn)
865 | COc1ccc(N2CCN(c3ncc(C(=O)O)c(C(C)C)n3)CC2)cc1
632 | O=C(NC1CCCC1)C1CCN(C(=O)c2cccn2-c2cccnc2)CC1
640 | CCOc1ccc(C(=O)NCC(=O)Nc2nc3ccccc3[nH]2)cc1OCC
1000 | O=C(O)Cn1nnc(-c2cc(N3CCC(Oc4cc(F)ccc4Br)CC3)no2)n1
740 | CCN1c2ccccc2C(=O)NC12CCN(C(=O)c1ccc3c(c1)OCO3)CC2
705 | CC(C)NC(=O)c1ccc(-c2nc3cc(NS(=O)(=O)c4cc(F)ccc4F)ccc3n2C)cc1
837 | COc1ccc(-c2nnc(N3CCC(C(=O)Nc4ccc(OC)cc4OC)CC3)o2)cc1
834 | Cc1ccc(NC(=O)N2CCc3c(c(-c4nc(C5CC5)no4)nn3C)C2)c(C)c1
819 | CCOc1ccccc1NC(=O)N1C[C@@H](F)C[C@H]1C(=O)N1CCc2ccccc2C1
662 | COc1ccc(N2CCN(C(=O)C3CC(=O)N(c4n[nH]c5cccc(F)c45)C3)CC2)cc1 (stereo not drawn)
1020 | CCN(CC)S(=O)(=O)c1ccc2c(c1)N(CC(=O)NCc1ccccc1C)C(=O)C1CCCCN21 (stereo not drawn)
902 | Cc1nc(-c2ccc(-c3noc(CNC(=O)c4ccccc4)n3)cc2)cs1
949 | CCc1ccc(C2=C(C)C(N3CCCN(C(=O)CC(C)(C)C)CC3)=NS2(=O)=O)cc1
1030 | CCN1C(=O)c2cc(S(=O)(=O)NCc3cccc(Cl)c3)ccc2Oc2cccnc21
674 | O=C(NCc1ccc2c(c1)OCO2)c1ccc2c(c1)N(CC(=O)N1CCCC1)C(=O)CO2
575 | COCC1CN(C(=O)c2sccc2C)CC12CCNCC2 (stereo not drawn)
1190 | COc1ccc(Cn2c(=O)c3sccc3n(Cc3nc(-c4ccc(F)c(Cl)c4)no3)c2=O)cc1
925 | COC(=O)c1ccccc1NC(=O)Cn1cnc2nc(-c3ccc(OC)cc3)ncc2c1=O
970 | CCn1ccc(C(=O)N2c3ccccc3CC2c2nc(C(C)C)no2)n1 (stereo not drawn)
575 | c1cc(-c2sc(-c3ccncc3)c(-c3ccncc3)c2-c2ccncc2)ccn1
663 | COc1cccc(C(O)CN2CCN(c3cccc(C)c3)CC2)c1 (stereo not drawn)

RP-LC retention time [s] | Compound
570 | CCNc1cc(N2CCC(CCC(=O)NCCc3cccs3)CC2)ncn1
581 | COc1cccc(NC(=O)Cn2c(N)nc(C)cc2=O)c1
855 | CCSc1nnc(NC(=O)C2CCC(=O)N2S(=O)(=O)c2ccc(C)cc2)s1 (stereo not drawn)
714 | CN1C(=O)c2cc(C(=O)N3CCCCCC3)nn2CC1(C)C(=O)NC1CCCC1 (stereo not drawn)
632 | O=C(Cc1ccccc1F)NCC(=O)Nc1nc2ccccc2[nH]1
764 | CN1CCn2cc(S(=O)(=O)N3CCN(c4ccccc4)CC3)cc2C1=O
671 | CC(C)NC(=O)c1nc(-c2ccnc(N3CCOCC3)c2)no1
891 | O=C(Nc1ccc2c(c1)OCCO2)N1CCC(OCCOc2ccccc2)CC1
980 | Cc1cc(C)cc(OCc2nc(CCN(C)C(=O)NCc3ccccc3)no2)c1
784 | Cc1nc2c(NS(=O)(=O)c3ccc(F)c(C)c3)cccn2n1
1020 | CCc1noc(-c2ccnc(-n3ncc(C(=O)NC4CCCCC4)c3C)c2)n1
676 | Nc1ncc2c(n1)CC(c1ccco1)CC2=O (stereo not drawn)
1240 | CCc1nc2cc(-c3noc(COc4cccc(Cl)c4)n3)ccc2o1
1290 | c1ccc(-c2nc3cc(-c4noc(-c5cccnc5)n4)ccc3o2)cc1
610 | O=C(CCS(=O)(=O)c1ccccc1)N(Cc1ccccn1)Cc1ccco1
596 | CC(C)(C)NC(=O)N1CC2CC1C(=O)O2 (stereo not drawn)
827 | CCCCC(=O)Nc1ccc(OCc2cc(C(=O)NC(C)C)no2)cc1
849 | Cc1ccccc1C1CCCN1C(=O)c1nn(C)cc1Cl (stereo not drawn)
1020 | O=C(c1c(F)cccc1Cl)N1CCc2nc(-c3ccc(F)cc3)ncc2C1
591 | Cc1cc(C(N)=O)c2cc(C(C)C)ccc2n1
583 | CCOC(=O)c1c(C)oc2nc(C)nc(N3CCN(Cc4ccccc4)CC3)c12
785 | CCc1cccc(NC(=O)C2CC(=O)N(c3ccc4oc(C)nc4c3)C2)c1 (stereo not drawn)

RP-LC retention time [s] | Compound
725 | CCOC(=O)C1CCN(C(c2ccc(C)cc2)c2c(O)cc(C)n(CC)c2=O)CC1 (stereo not drawn)
1060 | Cc1ccc(Cc2nc(-c3ccc(S(=O)(=O)N4CCC(C(=O)N5CCCC5)CC4)cc3)no2)cc1
562 | Cc1ccc2c(C(=O)NCCN3CCCCC3)cc(NC(=O)C3CCC3)cc2n1
817 | O=C(NCc1cnoc1-c1ccc(F)cc1)c1c(F)cccc1F
675 | CC(=O)Nc1nsc(N2CCC(C(=O)N3CCN(c4ccc(C)cc4)CC3)CC2)n1
741 | O=C(O)c1cccnc1SC1CC(=O)N(c2ccc(F)c(Cl)c2)C1=O (stereo not drawn)
700 | CCn1c(C(=O)NCCCN2CCCC2=O)c(N2CCCC2=O)c2cc(F)ccc21
732 | COc1ccc(NC(=O)N2C[C@@H](F)C[C@H]2C(=O)N2CCc3ccccc3C2)cc1OC
913 | Cn1ncc2c(N3CCSCC3)nc(C(=O)NCCc3ccc(Cl)cc3)nc21
734 | O=C(Cc1cccs1)N1CCN(c2ccc(-c3ccco3)nn2)CC1
1250 | CC(C)c1ccc(-c2nc(-c3ccc4c(c3)oc(=O)n4C)no2)cc1
798 | Cc1[nH]c(C(=O)N2CCC(CC(=O)N(C)Cc3ccco3)CC2)c(C)c1C(=O)OC(C)C
662 | COc1ccc(Nc2c(C(=O)N3CCC(C)CC3)cnc3nc(C)ccc23)c(OC)c1
1070 | CCN1C(=O)COc2ccc(-c3csc(NC(=O)CCc4ccc(C)cc4)n3)cc21
994 | Cc1nc2c(sc3nc(-c4ccccc4)ccc32)c(=O)n1CC(=O)NCc1ccc(F)cc1
640 | CN(C(=O)Cn1nc(Cc2ccncc2)c2ccccc2c1=O)C1CCCCC1
1120 | Cc1c(C(=O)N2CCCC(C)C2)cnn1-c1ccc(-c2nc(C(C)C)no2)cn1 (stereo not drawn)
842 | Cc1noc(C)c1-c1ccc(S(=O)(=O)NCc2ccco2)cc1
685 | Cc1cc(NC(=O)C2CCCN(c3ccc(-c4ccc(Cl)cc4)nn3)C2)on1 (stereo not drawn)
894 | C=CCN1C(=O)COc2ccc(-c3csc(NC(=O)CCC)n3)cc21

Compound | RP-LC retention time [s]
Clc1ccc(C2CC3CCC2N3)cn1 (stereo not drawn) | 613
O=C(CC1CCCC1)N1[C@H]2CC[C@@H]1c1cnc(-c3ccc(F)cc3)nc1C2 | 1060
